Source: patent publication US7897582B2, “Oligonucleotide compositions and methods for the modulation of the expression of B7 protein” (Isis Pharmaceuticals, Inc., priority 2003, dated 2011)
Strand notation (5' to 3'): a small letter for the sugar, then the base; units joined by * are phosphorothioate-linked, units joined directly phosphodiester-linked; [ ] holds rarer units or linkages, { } end groups; capitals alone tell only the bases. e = 2'-O-(2-methoxyethyl) (MOE); [5mC] = 5-methylcytosine; d = 2'-deoxy (DNA)

Legend:
Human B7-1 mRNA = Human B7-1 mRNA expression in COS-7 cells, screened as in Example 4; type: cell-based; conditions: human B7-1 mRNA; Table 7
hB7-2 mRNA = assay: Ribonuclease protection assay of hB7-2 mRNA in transfected COS-7 cells; type: cell-based, human; conditions: human B7-2 mRNA; Table 12
Protocol: For ribonuclease protection assays, cells were harvested 18 hours after completion of oligonucleotide treatment using a Totally RNA™ kit (Ambion, Austin, Tex.). The probes for the assay were generated from plasmids pcB7-2 (linearized by digestion with Bgl II) and pTRI-b-actin (Ambion Inc., Austin, Tex.). In vitro transcription of the linearized plasmid from the SP6 promoter was performed in the presence of α-^32P-UTP (800 Ci/mmole) yielding an antisense RNA complementary to the 3′ end of B7-2 (position 1044-1391). The probe was gel-purified after treatment with DNase I to remove DNA template. Ribonuclease protection assays were carried out using an RPA II™ kit (Ambion) according to the manufacturer's directions. Total RNA (5 μg) was hybridized overnight, at 42° C., with 10^5 cpm of the B7-2 probe or a control beta-actin probe. The hybridization reaction was then treated, at 37° C. for 30 minutes, with 0.4 units of RNase A and 2 units of RNase T1. Protected RNA was precipitated, resuspended in 10 μL of gel loading buffer and electrophoresed on a 6% acrylamide gel with 50% w/v urea at 20 W. The gel was then exposed and the lanes quantitated using a PhosphorImager (Molecular Dynamics, Sunnyvale, Calif.) essentially according to the manufacturer's instructions.
The oligonucleotides were screened as described in Example 4 except that the concentration of oligonucleotide was varied as shown in Table 13. Mismatch control oligonucleotides were included.

Substance	% mRNA EXPRESSION (hB7-2 mRNA)	other results
13805 (antisense C^{S}C^{S}T^{S}G^{S}C^{S}C^{S}T^{S}C^{S}C^{S}G^{S}T^{S}G^{S}T^{S}G^{S}T^{S}G^{S}G^{S}C^{S}C^{S}C; as printed in the source, key not given here) [compound 13805]		% mRNA EXPRESSION (Human B7-1 mRNA): 46%; % mRNA INHIBITION (Human B7-1 mRNA): 54%
22285 (e[5mC]*eA*eG*eA*eA*dG*d[5mC]*dA*dA*dG*dG*dT*dG*dG*dT*eA*eA*eG*eA*eA; antisense) [compound 22285]	74%	% mRNA INHIBITION (hB7-2 mRNA): 26%
22286 (eG*e[5mC]*e[5mC]*eT*eG*dT*d[5mC]*d[5mC]*dA*d[5mC]*dT*dG*dT*dA*dG*e[5mC]*eT*e[5mC]*e[5mC]*eA; antisense) [compound 22286]	39%	
22288 (eT*e[5mC]*eA*eG*eA*dG*dG*dA*dG*d[5mC]*dA*dG*d[5mC]*dA*d[5mC]*e[5mC]*eA*eG*eA*eG; antisense) [compound 22288]	38%	
22289 (eT*eG*eG*e[5mC]*eA*dT*dG*dG*d[5mC]*dA*dG*dG*dT*d[5mC]*dT*eG*e[5mC]*eA*eG*eT; antisense) [compound 22289]	41%	
22290 (eA*eG*e[5mC]*eT*e[5mC]*dA*d[5mC]*dT*d[5mC]*dA*dG*dG*d[5mC]*dT*dT*eT*eG*eG*eT*eT; antisense) [compound 22290]	42%	
22291 (eT*eG*e[5mC]*e[5mC]*eT*dA*dA*dG*dT*dA*dT*dA*d[5mC]*d[5mC]*dT*e[5mC]*eA*eT*eT*e[5mC]; antisense) [compound 22291]	41%	
22292 (e[5mC]*eT*eG*eT*e[5mC]*dA*dA*dA*dT*dT*dT*d[5mC]*dT*d[5mC]*dT*eT*eT*eG*e[5mC]*e[5mC]; antisense) [compound 22292]	39%	
22293 (e[5mC]*eA*eT*eA*eT*dA*d[5mC]*dT*dT*dG*dG*dA*dA*dT*dG*eA*eA*e[5mC]*eA*e[5mC]; antisense) [compound 22293]	43%	
22295 (eT*eG*eA*eT*e[5mC]*dT*dG*dA*dA*dG*dA*dT*dT*dG*dT*eG*eA*eA*eG*eT; antisense) [compound 22295]	66%	% mRNA INHIBITION (hB7-2 mRNA): 34%
22296 (eA*eA*eG*e[5mC]*e[5mC]*d[5mC]*dT*dT*dG*dT*d[5mC]*d[5mC]*dT*dT*dG*eA*eT*e[5mC]*eT*eG; antisense) [compound 22296]	42%	
22297 (eT*eG*eT*eG*eA*dT*dG*dG*dA*dT*dG*dA*dT*dA*d[5mC]*eA*eT*eT*eG*eA; antisense) [compound 22297]	54%	% mRNA INHIBITION (hB7-2 mRNA): 46%
22298 (eT*e[5mC]*eA*eG*eG*dT*dT*dG*dA*d[5mC]*dT*dG*dA*dA*dG*eT*eT*eA*eG*e[5mC]; antisense) [compound 22298]	53%	% mRNA INHIBITION (hB7-2 mRNA): 47%
22299 (eG*eT*eG*eT*eA*dT*dA*dG*dA*dT*dG*dA*dG*d[5mC]*dA*eG*eG*eT*e[5mC]*eA; antisense) [compound 22299]	46%	
22300 (eT*e[5mC]*eT*eG*eT*dG*dA*d[5mC]*dA*dT*dT*dA*dT*d[5mC]*dT*eT*eG*eA*eG*eA; antisense) [compound 22300]	39%	
22301 (eA*eA*eG*eA*eT*dA*dA*dA*dA*dG*d[5mC]*d[5mC]*dG*d[5mC]*dG*eT*e[5mC]*eT*eT*eG; antisense) [compound 22301]	51%	
22302 (eA*eG*eA*eA*eA*dA*d[5mC]*d[5mC]*dA*dT*d[5mC]*dA*d[5mC]*dA*d[5mC]*eA*eT*eA*eT*eA; antisense) [compound 22302]	41%	
22303 (eA*eG*eA*eG*eT*dT*dG*d[5mC]*dG*dA*dG*dG*d[5mC]*d[5mC]*dG*e[5mC]*eT*eT*e[5mC]*eT; antisense) [compound 22303]	46%	
22304 (eT*e[5mC]*e[5mC]*e[5mC]*eT*d[5mC]*dT*d[5mC]*d[5mC]*dA*dT*dT*dG*dT*dG*eT*eT*eG*eG*eT; antisense) [compound 22304]	41%	
